# Publication PMC6017654, “Ionic Liquid-Promoted Synthesis of Novel Chromone-Pyrimidine Coupled Derivatives, Antimicrobial Analysis, Enzyme Assay, Docking Study and Toxicity Study” (Molecules : A Journal of Synthetic Chemistry and Natural …, 2018)
# Assays:
# Type in all cases: cell-based
# A. flavus = experiment: In vitro antifungal activity (MIC100, CLSI/NCCLS); conditions: Aspergillus flavus; A. fla.; average of three readings; read-out: MIC 100
# [1] = tested on: Staphylococcus aureus (NCIM-2901); experiment: In vitro antibacterial activity (MIC100, two fold serial dilution, NCCLS); conditions: Staphylococcus aureus, NCIM2901, 24 h, read-out: MIC100, S. aureus NCIM-2901, average of three readings
# Description: (§1) All the synthesized compounds 4(a–f) and 6(a–f) were screened for their in vitro antibacterial activity against Staphylococcus aureus (NCIM-2901), Escherichia coli 1411 (standard laboratory strains) and Escherichia coli SM1411 (an acrAB deficient derivative of 1411). Minimum inhibitory concentration (MIC100) values were determined using methods recommended by National Committee for Clinical Laboratory Standards (NCCLS). Dimethyl sulfoxide (DMSO) was used as solvent control.
# (§2) All the synthesized compounds 4(a–f) and 6(a–f) were screened for their in vitro antibacterial activity against Staphylococcus aureus (NCIM-2901) and Escherichia coli 1411 (standard laboratory strains) and Escherichia coli SM1411 (an acrAB deficient derivative of 1411). Minimum inhibitory concentration (MIC100) values were determined using the method recommended by National Committee for Clinical Laboratory Standards (NCCLS). In vitro antibacterial activities of the synthesized compounds 4(a–f) and 6(a–f) were tested in Nutrient Broth (NB) for Bacteria by the two fold serial dilution method. Seeded broth (broth containing microbial spores) was prepared in NB from 24 h old bacterial cultures on nutrient agar (Hi-media) at 37 ± 1 °C. The bacterial suspension was adjusted with sterile saline to a concentration of […]. The synthesized compounds and standard drug D-cycloserine were prepared by two fold serial dilutions to obtain the required concentrations. The tubes were incubated in BOD incubators at 37 ± 1 °C for bacteria. The MICs were recorded by visual observations after 24 h (for bacteria) of incubation.
# [2] = tested on: Escherichia coli SM1411 (an acrAB deficient derivative of 1411); experiment: as above; conditions: 24 h, read-out: MIC100
# Description: as §1, §2
# Escherichia coli 1411 = experiment: as above; conditions: Escherichia coli, 1411, 24 h, read-out: MIC100
# Description: as §1, §2
structure (smiles),measurement,setting,value
"COc1ccc2occ(C3NC(=S)NC(C)=C3C(=O)NN)c(=O)c2c1 (stereo not shown) [Compound 6f, 4-(6-Methoxy-4-oxo-4H-chromen-3-yl)-6-methyl-2-thioxo-1,2,3,4-tetrahydropyrimidine-5-carbohydrazide]",MIC,A. flavus,15 µg/mL
same,MIC,[1],> 200 µg/mL
same,MIC,[2],> 60 µg/mL
same,MIC,Escherichia coli 1411,> 60 µg/mL
